Assay results from patent publication US20120270928A1, “MICRORNA COMPOUNDS AND METHODS FOR MODULATING MIR-21 ACTIVITY” (REGULUS THERAPEUTICS INC., priority 2011, published 2012).
Values joined by “and” are separate entries in the source; they are usually repeats but may differ in a detail not shown here. Equal entries are not always repeated.

Key:
[1] = test system: UUO model of kidney fibrosis; test: Unilateral ureteral obstruction (UUO) model of kidney fibrosis: kidney collagen 1A1 and collagen 3A1 expression by real-time PCR; assay type: in vivo, mice; details: Table K, UUO mice, kidney at day 11
Protocol: Unilateral ureteral obstruction (UUO) is a well-established experimental model of renal injury leading to interstitial fibrosis, and thus is used as an experimental model that is reflective of human kidney disease. UUO is induced by surgically ligating a single ureter. As fibrosis is characterized by an increase in collagen, the presence and extent of kidney fibrosis may be determined by measuring collagen content. Both collagen 1A1 (Col 1A1) and collagen 3A1 (Col 3A1) are measured to assess collagen content. Kidney fibrosis may be visualized by staining tissue samples with picro-sirius red to detect increases in collagen content. Kidney fibrosis may also be observed by measuring the amount of hydroxyproline, which is a major component of collagen, in a sample.
The cEt-containing anti-miR-21 compounds found to be active in the luciferase assay were tested in the UUO model of kidney fibrosis. 25919 comprising 2′-MOE and 2′-fluoro modifications is known to inhibit miR-21 activity in vivo and was included as a positive control. Groups of 8 animals each were treated as follows: UUO only, UUO with PBS, or UUO with anti-miR-21 compound. Relative to the day of the UUO procedure, PBS or anti-miR-21 compound was administered at days −3, −1, and +5. Anti-miR-21 compounds were administered at a dose of 20 mg/kg. As the anti-miR compounds were administered prior to the UUO procedure, this dosing regimen is considered a prophylactic treatment. At day 11, animals were sacrificed and kidney was isolated for measurement of collagen expression. Collagen expression was measured by real-time PCR and normalized first to GAPDH and then to the sham control animals.
The UUO study was repeated to confirm the activity of 25070. The anti-miR was administered subcutaneously at a dose of 20 mg/kg.
Control treatment groups included UUO only (sham) and UUO with PBS administered subcutaneously. An additional control group included UUO with Tween-MC/20 carrier perorally. 25070 administered subcutaneously at dose of 20 mg/kg at 5 days prior to, 2 days prior to, and 3 days after, the UUO procedure. Irbesartan was administered perorally on daily on days 0 through 7 following the UUO procedure. Animals were sacrificed on Day 10 following the UUO procedure. Kidney tissue was collected for measurement of collagen 1A1 and collagen 3A1 expression.
Compounds 25220 and 25221, as well as 25923, were tested in the UUO model for their effects on fibrosis. Groups of 8 animals each were treated as follows: sham surgery, UUO with PBS, UUO with 25220, UUO with 25221, or UUO with 25923. Relative to the day of the UUO procedure, PBS or anti-miR-21 compound was administered at days −5, −3, and +3. Anti-miR-21 compounds were administered at a dose of 20 mg/kg. As the anti-miR compounds were administered prior to the UUO procedure, this dosing regimen is considered a prophylactic treatment. At day 10, animals were sacrificed and kidney was isolated for measurement of collagen expression. Collagen expression was measured by real-time PCR and normalized to GAPDH.

[2] = test system: model of ischemia reperfusion injury (IRI); test: Unilateral ischemia reperfusion injury (IRI) model: kidney collagen 1A1 and collagen 3A1 expression; assay type: in vivo, mouse; details: for Collagen 3A1 (Normalized Expression) Mean / Collagen 1A1 (Normalized Expression) Mean: group mean; for Collagen 1A1 (Normalized Expression) / Collagen 3A1 (Normalized Expression): individual animals, 20 mg/kg
Protocol: A model of ischemia reperfusion injury (IRI) is created in the mouse through unilateral or bilateral clamping of kidney arteries, which leads to tubule damage, inflammation, and fibrosis. Kidney dysfunction can occur either early (<5 days) or late (>7 days) in this model, with the early time points useful to test candidate agents for the treatment of acute kidney injury, and the later time points useful to model chronic fibrosis.
Anti-miR-21 compounds were tested in the unilateral IRI model. Unilateral IRI was induced for a period of 30 minutes. Treatment groups were as follows: sham IRI procedure; IRI with PBS administered subcutaneously; IRI with anti-miR-21 compound 25070 administered intraperitoneally at a dose of 20 mg/kg; the 2′-fluoro/2′-MOE modified anti-miR-21 25919 administered intraperitoneally at a dose of 20 mg/kg; and a 2′-fluoro/2′ modified mismatch anti-miR-21 (having three mismatches to the sequence of miR-21) 25319 administered intraperitoneally at a dose of 20 mg/kg. PBS or anti-miR compound was administered on days 5, 6, and 7 following IRI, and animals were sacrificed 14 days after IRI. As anti-miR compound is administered 5 days following the injury to the kidney, or later, when fibrosis has already occurred to some extent, this treatment regimen is considered a therapeutic regimen, rather than a prophylactic regimen.
Kidney tissue was collected for analysis of collagen 1A1 and collagen 3A1 expression (shown in Table 0), and collagen area fraction (shown in Table P).
A similar study was performed with the same treatment groups and additional days of treatment. In this study, treatments were administered intraperitoneally at days 5, 6, 7, 14, and 21 following the IRI procedure Animals were sacrificed on Day 27, and kidney tissue was collected for analysis of collagen 1A1 and collagen 3A1 expression, as well as collagen area fraction.
In order to assess the flexibility of administration of the anti-miR-21 compound 25070, the activity of the compound in the 14 day study above, where anti-miR-21 was administered at […] following the IRI procedure, to a different 14 day study where anti-miR-21 was administered intraperitoneally at days 3, 5, and 7 following the IRI procedure.

[3] = individual animals, 20 mg/kg at days -3, -1, +5 (prophylactic), real-time PCR normalized to GAPDH then sham, 20 mg/kg
[4] = Table O, unilateral IRI 30 minutes, 20 mg/kg intraperitoneally on days 5, 6, 7 (therapeutic), sacrifice 14 days after IRI
[5] = unilateral IRI mouse, 20 mg/kg intraperitoneally on days 5, 6, 7, 14, and 21, kidney, sacrificed Day 27

UECEAFAFCFAFUFCFAFGFUFCEUEGEAFUFAFAFGFCFUEAE (antisense TCAACATCAGTCTGATAAGCTA; listed as DNA, chemistry not fully specified) [Compound 25919, reference compound]
Collagen 3A1 (Normalized Expression) Mean ([1]; group mean, 20 mg/kg at days -3, -1, +5, UUO-PBS mean 87.2): 56.9
Collagen 1A1 (Normalized Expression) Mean ([1]; group mean, 20 mg/kg at days -3, -1, +5, UUO-PBS mean 114.9): 86.6
Collagen 1A1 (Normalized Expression) [1, 3]: 150.2 and 54.2 and 84.6 and 67.7 and 78.7 and 62.2 and 89.2 and 106.2
Collagen 3A1 (Normalized Expression) [1, 3]: 67.1 and 33.9 and 87.6 and 47.3 and 67.7 and 46.7 and 47.0 and 57.8
Collagen 3A1 (Normalized Expression) Mean ([2]; Table O, unilateral IRI, 20 mg/kg intraperitoneally on days 5, 6, 7, day 14, IRI-PBS mean 63.9): 59.9
Collagen 1A1 (Normalized Expression) Mean ([2]; Table O, unilateral IRI, 20 mg/kg intraperitoneally on days 5, 6, 7, day 14, IRI-PBS mean 85.1): 72.0
Collagen 1A1 (Normalized Expression) [2, 4]: 108.7 and 103.9 and 29.5 and 95.8 and 35.5 and 42.2 and 64.1 and 96.4
Collagen 3A1 (Normalized Expression) [2, 4]: 87.5 and 72.3 and 14.3 and 104.4 and 27.1 and 34.9 and 56.1 and 82.8
Collagen 1A1 (Normalized Expression) Mean [2, 5]: 48.3
Collagen 3A1 (Normalized Expression) Mean [2, 5]: 34.9
Collagen 1A1 (Normalized Expression) [2, 5]: 75.5 and 50.4 and 49.2 and 43.2 and 41.7 and 53.6 and 44.8 and 28.0
Collagen 3A1 (Normalized Expression) [2, 5]: 40.2 and 43.1 and 34.5 and 35.7 and 41.1 and 36.9 and 24.5 and 22.9
